Columns and labels:
[1] = molecular target: T1, Human COX 1 (Homo sapiens, UniProt P23219); experiment: Human COX 1 test (arachidonic acid-induced aggregation of washed human thrombocytes); format: cell-based; details: arachidonic acid 10 μM, 37° C., substance added 2 minutes before, read-out: COX I IC50
T1 construct: arachidonic acid-induced aggregation of washed human thrombocytes; endogenous in cells; host or cells: washed human thrombocytes (platelets)
Method: The inhibition of arachidonic acid-induced aggregation of washed human thrombocytes was used as a test system for assessing the inhibition of cyclooxygenase I. The test substances were added to a thrombocyte suspension at 37° C. 2 minutes before the addition of the arachidonic acid (final concentration 10 μM) and the course of aggregation was measured using an aggregometer. By means of a concentration-activity curve the concentration of test substance at which 50% aggregation is measured was determined (IC50).

[2] = molecular target: T2, Human COX-2 (Homo sapiens, UniProt P35354); experiment: Human COX-2 test (LPS-stimulated human monocytoid cell line, arachidonic acid, cyclooxygenase products by ELISA); format: cell-based; details: for IC50: human monocytoid cell line, LPS-stimulated, half an hour pre-incubation, arachidonic acid 15 minutes, ELISA, read-out: COX II IC50; for COX I/COX II: selectivity obtained from the two tests, ratio of COX I IC50 to COX II IC50
T2 construct: endogenous in cells
T2 sequence (P35354 18-604): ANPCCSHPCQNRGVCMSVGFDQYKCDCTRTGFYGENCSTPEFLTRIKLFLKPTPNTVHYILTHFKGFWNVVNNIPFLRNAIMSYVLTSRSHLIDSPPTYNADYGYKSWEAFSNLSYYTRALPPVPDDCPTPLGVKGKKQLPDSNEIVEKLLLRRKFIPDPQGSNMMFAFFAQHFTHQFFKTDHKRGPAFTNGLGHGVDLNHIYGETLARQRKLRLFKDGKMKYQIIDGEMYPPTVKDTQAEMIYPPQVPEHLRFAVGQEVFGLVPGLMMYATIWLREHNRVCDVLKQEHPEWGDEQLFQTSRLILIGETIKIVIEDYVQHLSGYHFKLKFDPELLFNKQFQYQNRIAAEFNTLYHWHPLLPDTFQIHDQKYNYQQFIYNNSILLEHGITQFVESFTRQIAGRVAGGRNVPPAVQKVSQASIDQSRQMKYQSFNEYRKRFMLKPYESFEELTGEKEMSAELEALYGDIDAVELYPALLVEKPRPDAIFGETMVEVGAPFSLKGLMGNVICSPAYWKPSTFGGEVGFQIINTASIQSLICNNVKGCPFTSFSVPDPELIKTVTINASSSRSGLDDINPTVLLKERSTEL
Method: Cells from a human monocytoid cell line are stimulated with LPS (incubator at 37° C., 5% CO2 -enriched atmosphere and approximately 100% relative humidity), in order to induce COX-2. Then the culture medium (RPMI 1640 enriched with 10% FCS, 2 mM glutamine, […], […] and 1 mM pyruvate) was renewed and potential inhibitors of cyclooxygenase-2, dissolved in culture medium or in phosphate-buffered saline or in any other solvent which is compatible with cell culture, were added and incubated for half an hour as described above. Arachidonic acid was pipetted in and incubation was continued for 15 minutes. The culture supernatant of the cells was removed and its content of products of cyclooxygenase metabolism (such as prostaglandin E2, prostaglandin F1a and thromboxane B2) was measured by ELISA.

T1 sequence (P23219 24-599): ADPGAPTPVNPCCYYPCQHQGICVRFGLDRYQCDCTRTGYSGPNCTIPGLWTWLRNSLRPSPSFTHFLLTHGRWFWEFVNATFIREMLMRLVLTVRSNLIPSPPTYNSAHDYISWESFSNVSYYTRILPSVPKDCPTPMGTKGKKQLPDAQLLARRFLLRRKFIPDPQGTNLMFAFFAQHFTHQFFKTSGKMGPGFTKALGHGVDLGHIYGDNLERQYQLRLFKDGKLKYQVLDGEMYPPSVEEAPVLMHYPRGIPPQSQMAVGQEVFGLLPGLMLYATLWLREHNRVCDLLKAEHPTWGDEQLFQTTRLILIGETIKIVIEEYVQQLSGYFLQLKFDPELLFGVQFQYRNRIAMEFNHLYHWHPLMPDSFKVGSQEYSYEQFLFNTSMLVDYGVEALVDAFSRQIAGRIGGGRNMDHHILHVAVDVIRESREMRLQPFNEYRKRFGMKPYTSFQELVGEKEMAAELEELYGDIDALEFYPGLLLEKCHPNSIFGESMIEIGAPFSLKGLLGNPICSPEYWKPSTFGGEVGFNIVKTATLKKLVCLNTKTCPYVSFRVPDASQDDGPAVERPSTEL

Row | Structure (SMILES) | IC50 [1] | IC50 [2] | COX I/COX II [2]
1 | CS(=O)(=O)Nc1ccc(S(N)(=O)=O)cc1Oc1ccc(Cl)cc1Cl [Example 1, 3-(2,4-Dichlorophenoxy)-4-methylsulphonylamino-benzenesulphonamide] | ≥ 50000 nM | 100 nM | ≥ 500
2 | CS(=O)(=O)Nc1cc2c(cc1Oc1ccccc1)S(=O)(=O)NC2 [Example 4, 6-(Phenoxy) -5-methylsulphonylamino-2H-1,2-benzothiazolidin-1,1-dioxide] | ≥ 45000 nM | 110 nM | ≥ 450
3 | CS(=O)(=O)Nc1ccc(S(N)(=O)=O)cc1Sc1ccc(F)cc1F [Example 6, 3-(2,4-Difluorothiophenoxy)-4-methylsulphonylamino-benzenesulphonamide] | 52000 nM | 200 nM | 260
4 | CS(=O)(=O)Nc1ccc(S(N)(=O)=O)cc1Sc1ccc(Cl)cc1Cl [Example 7, 3-(2,4-Dichlorothiophenoxy)-4-methylsulphonylamino-benzenesulphonamide] | 27000 nM | 27 nM | 1000

Now from value to compound:

Row | IC50 [1] | IC50 [2] | COX I/COX II [2] | Structure (SMILES)
5 | 11000 nM | 150 nM | 73 | CS(=O)(=O)Nc1ccc(S(N)(=O)=O)cc1Sc1ccc(F)cc1Cl [Example 8, 3-(2-Chloro-4-fluorothiophenoxy)-4-methylsulphonylamino-benzene-sulphonamide]
6 | 60000 nM | 170 nM | 353 | CS(=O)(=O)Nc1ccc(S(N)(=O)=O)cc1Sc1ccc(Cl)cc1 [Example 17, 3-(4-Chlorophenylthio) -4-methylsulphonylaminobenzenesulphonamide]
7 | ≥ 60000 nM | 540 nM | ≥ 110 | CS(=O)(=O)Nc1ccc(S(N)(=O)=O)cc1SC1CCCCC1 [Example 19, 3-(Cyclohexylthio)-4-methylsulphonylaminobenzene-sulphonamide]
8 | ≥ 35000 nM | 170 nM | ≥ 196 | CS(=O)(=O)Nc1ccc(S(N)(=O)=O)cc1Sc1ccccc1Cl [Example 25, 3-(2-Chlorophenylthio)-4-methylsulphonylaminobenzene-sulphonamide]
9 | ≥ 70000 nM | 270 nM | ≥ 253 | CS(=O)(=O)Nc1ccc(S(N)(=O)=O)cc1Sc1ccc(Br)cc1 [Example 26, 3-(4-Bromophenylthio)-4-methylsulphonylaminobenzenesulphonamide]
